Data from patent publication US12209087B2, “AKT1 modulators” (Alterome Therapeutics, Inc., priority 2022, dated 2025).

Biological target: T1, full length AKT E17K (Homo sapiens, UniProt P31749, E17K)
T1 construct: host or cells: HEK-293 (ATCC CRL-1573)
Assay: NanoBRET Target Engagement (TE) Assay
Assay type: cell-based
Conditions: competitive tracer displacement in living cells, read-out: AKT1 E17K IC50
Method in brief: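 Compound and tracer incubated 2 h before luminescence at donor 450 nm and acceptor 600 nm, with extracellular signal inhibited. EC50 by sigmoidal variable-slope regression.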

T1 sequence (P31749 whole entry E17K): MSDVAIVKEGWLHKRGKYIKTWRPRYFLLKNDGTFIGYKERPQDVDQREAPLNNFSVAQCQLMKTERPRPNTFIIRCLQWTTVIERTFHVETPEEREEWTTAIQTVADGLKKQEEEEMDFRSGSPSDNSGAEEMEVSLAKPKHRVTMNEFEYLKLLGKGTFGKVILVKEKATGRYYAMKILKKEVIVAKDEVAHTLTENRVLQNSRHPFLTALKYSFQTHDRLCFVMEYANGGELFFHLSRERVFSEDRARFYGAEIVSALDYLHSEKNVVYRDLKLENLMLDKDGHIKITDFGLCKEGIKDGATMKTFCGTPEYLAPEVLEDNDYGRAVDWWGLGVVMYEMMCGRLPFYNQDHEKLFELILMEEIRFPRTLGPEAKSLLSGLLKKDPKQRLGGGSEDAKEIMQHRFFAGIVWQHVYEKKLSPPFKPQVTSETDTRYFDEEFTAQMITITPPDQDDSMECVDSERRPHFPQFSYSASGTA

Row | IC50 [nM] | Structure (SMILES)
1 | < 15 | COc1ccc2nc(-c3cccnc3N)n(-c3ccc(CN4CCC(Nc5ccnc(C#N)n5)CC4)cc3)c2n1 [Example 287, 4-((1-(4-(2-(2-Aminopyridin-3-yl)-5-methoxy-3H-imidazo[4,5-b]pyridin-3-yl)benzyl)piperidin-4-yl)amino)pyrimidine-2-carbonitrile]
2 | 15 to 60 | N#Cc1nccc(NC2CCN(Cc3ccc(-n4c(-c5cccnc5N)nc5ccc(C(N)=O)nc54)cc3)CC2)n1 [Example 288, 2-(2-aminopyridin-3-yl)-3-(4-((4-((2-cyanopyrimidin-4-yl)amino)piperidin-1-yl)methyl)phenyl)-3H-imidazo[4,5-b]pyridine-5-carboxamide]
3 | 60 to 600 | CN(C)C(=O)c1ccc2nc(-c3cccnc3N)n(-c3ccc(CN4CCC(Nc5ccnc(C#N)n5)CC4)cc3)c2n1 [Example 289, 2-(2-aminopyridin-3-yl)-3-(4-((4-((2-cyanopyrimidin-4-yl)amino)piperidin-1-yl)methyl)phenyl)-N,N-dimethyl-3H-imidazo[4,5-b]pyridine-5-carboxamide]
4 | 15 to 60 | N#Cc1cc(N2CCN(Cc3ccc(-n4c(-c5cccnc5N)nc5ccc(C6CC6)nc54)cc3)CC2)ncn1 [Example 290, 6-(4-(4-(2-(2-Aminopyridin-3-yl)-5-cyclopropyl-3H-imidazo[4,5-b]pyridin-3-yl)benzyl)piperazin-1-yl)pyrimidine-4-carbonitrile]
5 | 15 to 60 | N#Cc1cc(NC2CCN(Cc3ccc(-n4c(-c5cccnc5N)nc5ccc(C6CC6)nc54)cc3)CC2)ncn1 [Example 291, 6-((1-(4-(2-(2-Aminopyridin-3-yl)-5-cyclopropyl-3H-imidazo[4,5-b]pyridin-3-yl)benzyl)piperidin-4-yl)amino)pyrimidine-4-carbonitrile]
6 | < 15 | N#Cc1ncnc(N2CCN(Cc3ccc(-n4c(-c5cccnc5N)nc5ccc(N6CCOCC6)nc54)cc3)CC2)n1 [Example 292, 4-(4-(4-(2-(2-Aminopyridin-3-yl)-5-morpholino-3H-imidazo[4,5-b]pyridin-3-yl)benzyl)piperazin-1-yl)-1,3,5-triazine-2-carbonitrile]
7 | < 15 | N#Cc1nccc(N2CCN(Cc3ccc(-n4c(-c5cccnc5N)nc5ccc(-c6ccccc6C#N)nc54)cc3)CC2)n1 [Example 293, 4-(4-(4-(2-(2-Aminopyridin-3-yl)-5-(2-cyanophenyl)-3H-imidazo[4,5-b]pyridin-3-yl)benzyl)piperazin-1-yl)pyrimidine-2-carbonitrile]
8 | 15 to 60 | N#Cc1ccc(-c2ccc3nc(-c4cccnc4N)n(-c4ccc(CN5CCN(c6ccnc(C#N)n6)CC5)cc4)c3n2)cc1 [Example 294, 4-(4-(4-(2-(2-Aminopyridin-3-yl)-5-(4-cyanophenyl)-3H-imidazo[4,5-b]pyridin-3-yl)benzyl)piperazin-1-yl)pyrimidine-2-carbonitrile]
9 | < 15 | N#Cc1nccc(N2CCN(Cc3ccc(-n4c(-c5cccnc5N)nc5ccc(-c6cccc(F)c6)nc54)cc3)CC2)n1 [Example 295, 4-(4-(4-(2-(2-Aminopyridin-3-yl)-5-(3-fluorophenyl)-3H-imidazo[4,5-b]pyridin-3-yl)benzyl)piperazin-1-yl)pyrimidine-2-carbonitrile]
10 | < 15 | N#Cc1nccc(N2CCN(Cc3ccc(-n4c(-c5cccnc5N)nc5ccc(-c6cccc(Cl)c6)nc54)cc3)CC2)n1 [Example 296, 4-(4-(4-(2-(2-Aminopyridin-3-yl)-5-(3-chlorophenyl)-3H-imidazo[4,5-b]pyridin-3-yl)benzyl)piperazin-1-yl)pyrimidine-2-carbonitrile]
11 | 60 to 600 | N#Cc1ccnc(N2CCN(Cc3ccc(-n4c(-c5cccnc5N)nc5ccc(-c6cccc(Cl)c6)nc54)cc3)CC2)n1 [Example 297, 2-(4-(4-(2-(2-Aminopyridin-3-yl)-5-(3-chlorophenyl)-3H-imidazo[4,5-b]pyridin-3-yl)benzyl)piperazin-1-yl)pyrimidine-4-carbonitrile]
12 | < 15 | N#Cc1nccc(NC2CCN(Cc3ccc(-n4c(-c5cccnc5N)nc5ccc(C6CC6)nc54)cc3)CC2)n1 [Example 298, 4-((1-(4-(2-(2-Aminopyridin-3-yl)-5-cyclopropyl-3H-imidazo[4,5-b]pyridin-3-yl)benzyl)piperidin-4-yl)amino)pyrimidine-2-carbonitrile]
13 | < 15 | N#Cc1nccc(NC2CCN(Cc3ccc(-n4c(-c5cccnc5N)nc5ccc(C6CCOCC6)nc54)cc3)CC2)n1 [Example 299, 4-((1-(4-(2-(2-Aminopyridin-3-yl)-5-(tetrahydro-2H-pyran-4-yl)-3H-imidazo[4,5-b]pyridin-3-yl)benzyl)piperidin-4-yl)amino)pyrimidine-2-carbonitrile]
14 | 15 to 60 | N#Cc1ncnc(NC2CN(Cc3ccc(-n4c(-c5cccnc5N)nc5ccc(-c6ccccc6)nc54)cc3)C2)n1 [Example 300, 4-((1-(4-(2-(2-Aminopyridin-3-yl)-5-phenyl-3H-imidazo[4,5-b]pyridin-3-yl)benzyl)azetidin-3-yl)amino)-1,3,5-triazine-2-carbonitrile]
15 | < 15 | N#Cc1ncnc(N2CC3(CCN(Cc4ccc(-n5c(-c6cccnc6N)nc6ccc(-c7ccccc7)nc65)cc4)C3)C2)n1 [Example 301, 4-(6-(4-(2-(2-Aminopyridin-3-yl)-5-phenyl-3H-imidazo[4,5-b]pyridin-3-yl)benzyl)-2,6-diazaspiro[3.4]octan-2-yl)-1,3,5-triazine-2-carbonitrile]
16 | < 15 | N#Cc1nccc(N2CCC3(CCN(Cc4ccc(-n5c(-c6cccnc6N)nc6ccc(-c7ccccc7)nc65)cc4)C3)C2)n1 (stereo not shown) [Example 302, 4-(7-(4-(2-(2-Aminopyridin-3-yl)-5-phenyl-3H-imidazo[4,5-b]pyridin-3-yl)benzyl)-2,7-diazaspiro[4.4]nonan-2-yl)pyrimidine-2-carbonitrile]
17 | < 15 | N#Cc1ncnc(N2CC3(CN(Cc4ccc(-n5c(-c6cccnc6N)nc6ccc(-c7ccccc7)nc65)cc4)C3)C2)n1 [Example 303, 4-(6-(4-(2-(2-Aminopyridin-3-yl)-5-phenyl-3H-imidazo[4,5-b]pyridin-3-yl)benzyl)-2,6-diazaspiro[3.3]heptan-2-yl)-1,3,5-triazine-2-carbonitrile]
18 | < 15 | N#Cc1ncnc(N2CCN(Cc3ccc(-n4c(-c5cccnc5N)nc5ccc(-c6ccccc6Cl)nc54)cc3)CC2)n1 [Example 304, 4-(4-(4-(2-(2-Aminopyridin-3-yl)-5-(2-chlorophenyl)-3H-imidazo[4,5-b]pyridin-3-yl)benzyl)piperazin-1-yl)-1,3,5-triazine-2-carbonitrile]
19 | < 15 | N#Cc1nccc(NC2CCN(Cc3ccc(-n4c(-c5cccnc5N)nc5ccc(-c6ccccc6Cl)nc54)cc3)CC2)n1 [Example 305, 4-((1-(4-(2-(2-Aminopyridin-3-yl)-5-(2-chlorophenyl)-3H-imidazo[4,5-b]pyridin-3-yl)benzyl)piperidin-4-yl)amino)pyrimidine-2-carbonitrile]
20 | 15 to 60 | N#Cc1ccnc(NC2CCN(Cc3ccc(-n4c(-c5cccnc5N)nc5ccc(-c6ccccc6Cl)nc54)cc3)CC2)n1 [Example 306, 2-((1-(4-(2-(2-Aminopyridin-3-yl)-5-(2-chlorophenyl)-3H-imidazo[4,5-b]pyridin-3-yl)benzyl)piperidin-4-yl)amino)pyrimidine-4-carbonitrile]
21 | 60 to 600 | N#Cc1cc(NC2CCN(Cc3ccc(-n4c(-c5cccnc5N)nc5ccc(-c6ccccc6Cl)nc54)cc3)CC2)ncn1 [Example 307, 6-((1-(4-(2-(2-Aminopyridin-3-yl)-5-(2-chlorophenyl)-3H-imidazo[4,5-b]pyridin-3-yl)benzyl)piperidin-4-yl)amino)pyrimidine-4-carbonitrile]
22 | < 15 | N#Cc1nccc(NC2CCN(Cc3ccc(-n4c(-c5cccnc5N)nc5ccc(-c6ccc(Cl)cc6)nc54)cc3)CC2)n1 [Example 308, 4-((1-(4-(2-(2-Aminopyridin-3-yl)-5-(4-chlorophenyl)-3H-imidazo[4,5-b]pyridin-3-yl)benzyl)piperidin-4-yl)amino)pyrimidine-2-carbonitrile]
23 | 15 to 60 | N#Cc1ccnc(N2CCN(Cc3ccc(-n4c(-c5cccnc5N)nc5ccc(-c6cccc(F)c6)nc54)cc3)CC2)n1 [Example 309, 2-(4-(4-(2-(2-Aminopyridin-3-yl)-5-(3-fluorophenyl)-3H-imidazo[4,5-b]pyridin-3-yl)benzyl)piperazin-1-yl)pyrimidine-4-carbonitrile]
24 | < 15 | N#Cc1cc(N2CCN(Cc3ccc(-n4c(-c5cccnc5N)nc5ccc(-c6cccc(F)c6)nc54)cc3)CC2)ncn1 [Example 310, 6-(4-(4-(2-(2-Aminopyridin-3-yl)-5-(3-fluorophenyl)-3H-imidazo[4,5-b]pyridin-3-yl)benzyl)piperazin-1-yl)pyrimidine-4-carbonitrile]
25 | < 15 | N#Cc1cc(NC2CCN(Cc3ccc(-n4c(-c5cccnc5N)nc5ccc(-c6cccc(F)c6)nc54)cc3)CC2)ncn1 [Example 311, 6-((1-(4-(2-(2-Aminopyridin-3-yl)-5-(3-fluorophenyl)-3H-imidazo[4,5-b]pyridin-3-yl)benzyl)piperidin-4-yl)amino)pyrimidine-4-carbonitrile]
26 | < 15 | N#Cc1ncnc(N2CCN(Cc3ccc(-n4c(-c5cccnc5N)nc5ccc(-c6ccccc6F)nc54)cc3)CC2)n1 [Example 312, 4-(4-(4-(2-(2-Aminopyridin-3-yl)-5-(2-fluorophenyl)-3H-imidazo[4,5-b]pyridin-3-yl)benzyl)piperazin-1-yl)-1,3,5-triazine-2-carbonitrile]
27 | < 15 | N#Cc1ccnc(NC2CCN(Cc3ccc(-n4c(-c5cccnc5N)nc5ccc(-c6ccccc6F)nc54)cc3)CC2)n1 [Example 313, 2-((1-(4-(2-(2-Aminopyridin-3-yl)-5-(2-fluorophenyl)-3H-imidazo[4,5-b]pyridin-3-yl)benzyl)piperidin-4-yl)amino)pyrimidine-4-carbonitrile]
28 | < 15 | N#Cc1cc(N2CCN(Cc3ccc(-n4c(-c5cccnc5N)nc5ccc(-c6ccccc6F)nc54)cc3)CC2)ncn1 [Example 314, 6-(4-(4-(2-(2-Aminopyridin-3-yl)-5-(2-fluorophenyl)-3H-imidazo[4,5-b]pyridin-3-yl)benzyl)piperazin-1-yl)pyrimidine-4-carbonitrile]
